Experimental data as given in patent US8802700B2 (Vertex Pharmaceuticals Incorporated, priority 2010, dated 2014).
pEC50: −log10 of the molar value.

Each compound was assayed against T1, ΔF508-CFTR (Homo sapiens, UniProt P13569, DEL508-508) (assay: Membrane potential optical assay (FRET voltage-sensor dyes, VIPR), identification of potentiator compounds). Conditions: Table 3; assay not given.
T1 construct: expressed in transfected cells
T1 sequence (P13569 with tags, fused parts or gaps DEL508-508): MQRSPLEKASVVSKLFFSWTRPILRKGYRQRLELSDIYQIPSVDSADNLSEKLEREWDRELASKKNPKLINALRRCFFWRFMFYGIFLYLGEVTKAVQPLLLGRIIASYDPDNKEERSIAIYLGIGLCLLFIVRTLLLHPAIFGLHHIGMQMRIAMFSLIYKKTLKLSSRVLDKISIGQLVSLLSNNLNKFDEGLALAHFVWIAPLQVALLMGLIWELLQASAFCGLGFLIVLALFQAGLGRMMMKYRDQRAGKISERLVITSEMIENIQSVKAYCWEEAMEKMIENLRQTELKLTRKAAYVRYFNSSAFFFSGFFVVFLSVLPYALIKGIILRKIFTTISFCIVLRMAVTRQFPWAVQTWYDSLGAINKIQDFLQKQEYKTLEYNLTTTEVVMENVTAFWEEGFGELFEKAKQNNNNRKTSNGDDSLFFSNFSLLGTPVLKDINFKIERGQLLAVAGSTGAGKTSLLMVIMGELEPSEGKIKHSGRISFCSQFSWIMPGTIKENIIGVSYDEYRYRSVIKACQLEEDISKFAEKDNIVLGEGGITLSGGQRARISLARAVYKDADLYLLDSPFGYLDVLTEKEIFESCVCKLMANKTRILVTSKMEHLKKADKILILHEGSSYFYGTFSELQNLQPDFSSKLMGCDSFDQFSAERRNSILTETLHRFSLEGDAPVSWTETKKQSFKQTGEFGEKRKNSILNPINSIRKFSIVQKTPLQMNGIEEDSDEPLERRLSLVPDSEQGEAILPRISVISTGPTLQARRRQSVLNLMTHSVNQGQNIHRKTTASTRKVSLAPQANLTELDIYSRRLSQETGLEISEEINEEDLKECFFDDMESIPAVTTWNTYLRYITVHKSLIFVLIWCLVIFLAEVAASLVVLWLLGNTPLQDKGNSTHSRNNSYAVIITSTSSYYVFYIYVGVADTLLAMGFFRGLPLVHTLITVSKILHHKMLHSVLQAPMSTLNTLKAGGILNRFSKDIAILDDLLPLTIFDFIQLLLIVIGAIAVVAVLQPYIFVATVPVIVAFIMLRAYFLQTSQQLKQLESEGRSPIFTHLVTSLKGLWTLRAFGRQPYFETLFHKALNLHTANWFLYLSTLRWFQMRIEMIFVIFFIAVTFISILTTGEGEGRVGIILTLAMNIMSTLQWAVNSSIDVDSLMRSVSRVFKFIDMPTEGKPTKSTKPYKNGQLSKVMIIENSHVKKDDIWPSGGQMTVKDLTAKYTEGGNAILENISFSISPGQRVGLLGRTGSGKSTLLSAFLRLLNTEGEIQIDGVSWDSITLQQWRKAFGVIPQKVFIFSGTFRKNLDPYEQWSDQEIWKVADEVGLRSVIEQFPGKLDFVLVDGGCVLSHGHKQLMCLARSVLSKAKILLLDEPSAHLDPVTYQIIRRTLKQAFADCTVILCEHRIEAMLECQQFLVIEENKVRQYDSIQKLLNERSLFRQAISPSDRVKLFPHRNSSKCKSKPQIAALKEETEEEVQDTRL
Assay type: cell-based
Method in brief: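 NIH3T3 mouse fibroblasts stably expressing ΔF508-CFTR, cultured 24 h at 27 °C, were loaded with FRET voltage dyes CC2-DMPE and DiSBAC2(3). Double-addition format: first addition of Cl⁻-free (gluconate) medium with or without compound; membrane-potential change read as fluorescence on VIPR II.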
Compound CC(=O)N1CCCC(C)(C)c2ccc(NC(=O)c3c[nH]c4ccccc4c3=O)cc21 [Compound 109, N-(1-acetyl-2,3,4,5-tetrahydro-5,5-dimethyl-1H-benzo[b]azepin-8-yl)-1,4-dihydro-4-oxoquinoline-3-carboxamide] has a pEC50 of 4.60 to 5.00.
O=C(Nc1ccccc1-c1ccc2[nH]ccc2c1)c1c[nH]c2ccccc2c1=O [Compound 118, N-[2-(1H-indol-5-yl)phenyl]-4-oxo-1H-quinoline-3-carboxamide] was tested, and the pEC50 was over 5.00.
Work on O=C(Nc1ccccc1-c1ccoc1)c1c[nH]c2ccccc2c1=O [Compound 123, N-[2-(3-furyl)phenyl]-4-oxo-1H-quinoline-3-carboxamide] yielded a pEC50 of over 5.00.
In the case of Nc1cc(Cl)cc(NC(=O)c2c[nH]c3ccccc3c2=O)c1 [Compound 131, N-(3-amino-5-chloro-phenyl)-4-oxo-1H-quinoline-3-carboxamide], the pEC50 was over 5.00.

Same assay, conditions: Table 3; assay not given; read-out: % Activity (% Efficacy, relative efficacy)
For CC(C)c1ccc(N)cc1NC(=O)c1c[nH]c2ccccc2c1=O [Compound 101, N-(5-amino-2-isopropyl-phenyl)-4-oxo-1H-quinoline-3-carboxamide], the Emax was 25 to 100%.
Compound O=C(Nc1ccccc1-c1nc(-c2ccc(Cl)cc2)no1)c1c[nH]c2ccccc2c1=O [Compound 102, N-[2-[3-(4-chlorophenyl)-1,2,4-oxadiazol-5-yl]phenyl]-4-oxo-1H-quinoline-3-carboxamide] has an Emax of 25 to 100%.
CC(C)(C)c1cc(C(C)(C)C)c(NC(=O)c2c[nH]c3ccc(F)cc3c2=O)cc1O [Compound 103, 6-fluoro-N-(5-hydroxy-2,4-ditert-butyl-phenyl)-4-oxo-1H-quinoline-3-carboxamide] was tested, and the Emax was over 100%.
Cc1cc2ccc(NC(=O)c3c[nH]c4ccccc4c3=O)cc2[nH]1 [Compound 104, N-(2-methyl-1H-indol-6-yl)-4-oxo-1H-quinoline-3-carboxamide] was tested, and the Emax was 25 to 100%.
O=C(Nc1ccc2c(c1)NCCO2)c1c[nH]c2ccccc2c1=O [Compound 105, 1,4-dihydro-N-(3,4-dihydro-2H-benzo[b][1,4]oxazin-6-yl)-4-oxoquinoline-3-carboxamide] was tested, and the Emax was 25 to 100%.
COc1cc(C#N)c(NC(=O)c2c[nH]c3ccccc3c2=O)cc1OC [Compound 106, N-(2-cyano-4,5-dimethoxy-phenyl)-4-oxo-1H-quinoline-3-carboxamide] gave an Emax of under 25%.
Compound CC(C)(C)OC(=O)N1CCc2ccc(NC(=O)c3c[nH]c4ccccc4c3=O)cc2C1 [Compound 107, 7-[(4-oxo-1H-quinolin-3-yl)carbonylamino]-1,2,3,4-tetrahydroisoquinoline-2-carboxylic acid tert-butyl ester] has an Emax of 25 to 100%.
Work on CC(C)(C)OC(=O)N1CCC(C)(C)c2ccc(NC(=O)c3c[nH]c4ccccc4c3=O)cc21 [Compound 108, 4,4-dimethyl-7-[(4-oxo-1H-quinolin-3-yl)carbonylamino]-1,2,3,4-tetrahydroquinoline-1-carboxylic acid tert-butyl ester] yielded an Emax of 25 to 100%.
CC(=O)N1CCCC(C)(C)c2ccc(NC(=O)c3c[nH]c4ccccc4c3=O)cc21 [Compound 109, N-(1-acetyl-2,3,4,5-tetrahydro-5,5-dimethyl-1H-benzo[b]azepin-8-yl)-1,4-dihydro-4-oxoquinoline-3-carboxamide] was tested, and the Emax was 25 to 100%.
In the case of N#CCc1ccc(NC(=O)c2c[nH]c3ccccc3c2=O)cc1 [Compound 110, N-[4-(cyanomethyl)phenyl]-4-oxo-1H-quinoline-3-carboxamide], the Emax was under 25%.
O=C(Nc1ccccc1C(F)(F)F)c1c[nH]c2ccccc2c1=O [Compound 111, 4-oxo-N-[2-(trifluoromethyl)phenyl]-1H-quinoline-3-carboxamide] was tested, and the Emax was 25 to 100%.
CCOc1ccc2ncc(C(=O)Nc3ccc4cc[nH]c4c3)c(O)c2c1 [Compound 112, 6-ethoxy-4-hydroxy-N-(1H-indol-6-yl)quinoline-3-carboxamide] was tested, and the Emax was 25 to 100%.
Cc1c[nH]c2cc(NC(=O)c3c[nH]c4ccccc4c3=O)ccc12 [Compound 113, N-(3-methyl-1H-indol-6-yl)-4-oxo-1H-quinoline-3-carboxamide] gave an Emax of 25 to 100%.
Work on CCOc1ccccc1-c1ccc(NC(=O)OC(C)(C)C)cc1NC(=O)c1c[nH]c2ccccc2c1=O [Compound 114, [4-(2-ethoxyphenyl)-3-[(4-oxo-1H-quinolin-3-yl)carbonylamino]phenyl]aminoformic acid tert-butyl ester] yielded an Emax of 25 to 100%.
In the case of O=C(Nc1ccccc1-c1ccco1)c1c[nH]c2ccccc2c1=O [Compound 115, N-[2-(2-furyl)phenyl]-4-oxo-1H-quinoline-3-carboxamide], the Emax was 25 to 100%.
O=C(Nc1ccc2cc[nH]c2c1)c1c[nH]c2cccc(O)c2c1=O [Compound 116, 5-hydroxy-N-(1H-indol-6-yl)-4-oxo-1H-quinoline-3-carboxamide] gave an Emax of 25 to 100%.
Work on CC(C)c1ccc(NC(=O)c2c[nH]c3ccccc3c2=O)cc1N(C)C [Compound 117, N-(3-dimethylamino-4-isopropyl-phenyl)-4-oxo-1H-quinoline-3-carboxamide] yielded an Emax of 25 to 100%.
With O=C(Nc1ccccc1-c1ccc2[nH]ccc2c1)c1c[nH]c2ccccc2c1=O [Compound 118, N-[2-(1H-indol-5-yl)phenyl]-4-oxo-1H-quinoline-3-carboxamide] the Emax was 25 to 100%.
Work on CCOC(=O)NCC(C)(C)c1ccc(NC(=O)c2c[nH]c3ccccc3c2=O)cc1 [Compound 119, [2-methyl-2-[4-[(4-oxo-1H-quinolin-3-yl)carbonylamino]phenyl]-propyl]aminoformic acid ethyl ester] yielded an Emax of 25 to 100%.
In the case of COc1ccc(C)cc1NC(=O)c1c[nH]c2ccccc2c1=O [Compound 120, N-(2-methoxy-5-methyl-phenyl)-4-oxo-1H-quinoline-3-carboxamide], the Emax was 25 to 100%.
Compound COc1ccc(NC(=O)c2c[nH]c3ccccc3c2=O)cc1OC [Compound 122, N-(3,4-dimethoxyphenyl)-4-oxo-1H-quinoline-3-carboxamide] has an Emax of under 25%.
Work on O=C(Nc1ccccc1-c1ccoc1)c1c[nH]c2ccccc2c1=O [Compound 123, N-[2-(3-furyl)phenyl]-4-oxo-1H-quinoline-3-carboxamide] yielded an Emax of 25 to 100%.
CC(C)(C)c1cc2cc[nH]c2cc1NC(=O)c1c[nH]c2ccc(F)cc2c1=O [Compound 124, 6-fluoro-4-oxo-N-(5-tert-butyl-1H-indol-6-yl)-1H-quinoline-3-carboxamide] showed an Emax of over 100%.
Work on CCc1cccc(NC(=O)c2c[nH]c3ccccc3c2=O)n1 [Compound 125, N-(6-ethyl-2-pyridyl)-4-oxo-1H-quinoline-3-carboxamide] yielded an Emax of 25 to 100%.
COCCOCC(C)(C)c1ccc(NC(=O)c2c[nH]c3ccccc3c2=O)cc1O [Compound 126, N-[3-hydroxy-4-[2-(2-methoxyethoxy)-1,1-dimethyl-ethyl]-phenyl]-4-oxo-1H-quinoline-3-carboxamide] was tested, and the Emax was 25 to 100%.
CCOC(=O)Nc1cc(NC(=O)c2c[nH]c3ccccc3c2=O)ccc1C(C)(C)C [Compound 127, [5-[(4-oxo-1H-quinolin-3-yl)carbonylamino]-2-tert-butyl-phenyl]aminoformic acid ethyl ester] was tested, and the Emax was 25 to 100%.
Cc1ccc2c(c1)c(=O)c(C(=O)Nc1ccccc1-c1ccccc1)cn2C [Compound 128, 1,6-dimethyl-4-oxo-N-(2-phenylphenyl)-1H-quinoline-3-carboxamide] was tested, and the Emax was under 25%.
Compound CCc1ccc(NC(=O)c2c[nH]c3ccccc3c2=O)cc1NC(=O)OC [Compound 129, [2-ethyl-5-[(4-oxo-1H-quinolin-3-yl)carbonylamino]phenyl]aminoformic acid methyl ester] has an Emax of 25 to 100%.
In the case of O=C(Nc1ccc2cc[nH]c2c1)c1cnc2cc(C(F)(F)F)cc(C(F)(F)F)c2c1O [Compound 130, 4-hydroxy-N-(1H-indol-6-yl)-5,7-bis(trifluoromethyl)quinoline-3-carboxamide], the Emax was 25 to 100%.
Work on Nc1cc(Cl)cc(NC(=O)c2c[nH]c3ccccc3c2=O)c1 [Compound 131, N-(3-amino-5-chloro-phenyl)-4-oxo-1H-quinoline-3-carboxamide] yielded an Emax of 25 to 100%.
CCOc1ccc(NC(C)=O)cc1NC(=O)c1c[nH]c2ccccc2c1=O [Compound 132, N-(5-acetylamino-2-ethoxy-phenyl)-4-oxo-1H-quinoline-3-carboxamide] gave an Emax of under 25%.
